Columns and labels:
Test in all cases: cell-based
[1] = target: hNav1.7 (Homo sapiens, UniProt Q15858); details: read-out: IC50 (μM) Nav1.7
[2] = target: hNav1.5 (Homo sapiens, UniProt Q14524); details: IonWorks Quattro; Table 6; read-out: IC50 (μM) Nav1.5
[3] = target: hNav1.4 (Homo sapiens, UniProt P35499); format: cell-based; details: Table 6; for IC50: IonWorks Quattro, read-out: IC50 (μM) Nav1.4; for Nav1.4/Nav1.7: ratio of IonWorks Quattro IC50 values
[4] = target: hNav1.3 (Homo sapiens, UniProt Q9NY46); details: IonWorks Quattro; Table 6; read-out: IC50 (μM) Nav1.3
Sequence of hNav1.3 (Q9NY46 whole entry): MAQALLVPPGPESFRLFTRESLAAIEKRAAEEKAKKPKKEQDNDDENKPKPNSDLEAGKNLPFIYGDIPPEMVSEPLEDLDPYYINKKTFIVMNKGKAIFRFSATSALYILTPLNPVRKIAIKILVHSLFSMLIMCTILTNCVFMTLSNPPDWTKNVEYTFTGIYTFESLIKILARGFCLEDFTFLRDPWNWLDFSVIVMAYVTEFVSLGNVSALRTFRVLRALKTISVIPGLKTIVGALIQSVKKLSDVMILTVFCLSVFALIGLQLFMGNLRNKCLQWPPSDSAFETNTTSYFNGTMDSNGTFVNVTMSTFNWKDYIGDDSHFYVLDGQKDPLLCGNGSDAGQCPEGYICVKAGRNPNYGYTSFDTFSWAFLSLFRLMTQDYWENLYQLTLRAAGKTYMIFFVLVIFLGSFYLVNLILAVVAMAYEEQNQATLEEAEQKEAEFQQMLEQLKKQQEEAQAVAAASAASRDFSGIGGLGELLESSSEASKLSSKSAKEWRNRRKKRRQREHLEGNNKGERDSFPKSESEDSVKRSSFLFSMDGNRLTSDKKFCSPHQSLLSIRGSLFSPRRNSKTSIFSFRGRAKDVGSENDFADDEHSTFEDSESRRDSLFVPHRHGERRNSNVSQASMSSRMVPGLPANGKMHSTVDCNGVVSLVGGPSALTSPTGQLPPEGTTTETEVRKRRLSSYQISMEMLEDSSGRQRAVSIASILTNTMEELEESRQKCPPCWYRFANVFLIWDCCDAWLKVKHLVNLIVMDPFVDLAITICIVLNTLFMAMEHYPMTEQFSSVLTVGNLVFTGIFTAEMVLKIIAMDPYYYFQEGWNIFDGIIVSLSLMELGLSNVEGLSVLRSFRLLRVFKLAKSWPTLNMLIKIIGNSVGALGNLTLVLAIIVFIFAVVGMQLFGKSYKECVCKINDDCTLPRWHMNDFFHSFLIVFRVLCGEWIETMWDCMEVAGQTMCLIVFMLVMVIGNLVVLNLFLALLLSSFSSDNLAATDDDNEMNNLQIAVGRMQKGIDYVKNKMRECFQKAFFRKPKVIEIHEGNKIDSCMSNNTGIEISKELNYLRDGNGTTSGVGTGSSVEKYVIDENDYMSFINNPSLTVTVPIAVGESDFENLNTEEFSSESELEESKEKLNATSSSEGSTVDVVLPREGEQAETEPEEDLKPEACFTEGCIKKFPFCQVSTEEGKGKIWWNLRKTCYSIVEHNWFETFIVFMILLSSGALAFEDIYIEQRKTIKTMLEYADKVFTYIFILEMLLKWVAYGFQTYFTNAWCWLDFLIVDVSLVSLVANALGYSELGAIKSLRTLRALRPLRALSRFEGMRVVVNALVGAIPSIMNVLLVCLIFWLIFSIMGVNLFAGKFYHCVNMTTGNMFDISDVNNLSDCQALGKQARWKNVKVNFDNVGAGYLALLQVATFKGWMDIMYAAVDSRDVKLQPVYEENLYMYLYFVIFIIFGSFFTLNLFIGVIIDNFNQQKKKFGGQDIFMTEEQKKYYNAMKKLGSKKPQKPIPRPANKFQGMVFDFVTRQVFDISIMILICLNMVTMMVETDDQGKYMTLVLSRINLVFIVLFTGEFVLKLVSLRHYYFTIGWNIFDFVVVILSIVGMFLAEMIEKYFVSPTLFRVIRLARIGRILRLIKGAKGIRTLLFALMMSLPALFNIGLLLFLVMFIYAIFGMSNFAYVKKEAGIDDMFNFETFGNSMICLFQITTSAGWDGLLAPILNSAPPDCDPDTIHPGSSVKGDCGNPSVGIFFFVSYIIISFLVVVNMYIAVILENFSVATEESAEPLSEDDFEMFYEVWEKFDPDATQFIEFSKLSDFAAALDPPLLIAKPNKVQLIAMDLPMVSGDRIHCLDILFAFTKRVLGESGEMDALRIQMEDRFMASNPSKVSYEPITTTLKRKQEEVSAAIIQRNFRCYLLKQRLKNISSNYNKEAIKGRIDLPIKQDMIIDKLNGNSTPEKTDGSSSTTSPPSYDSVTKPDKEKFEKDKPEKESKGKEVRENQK

Sequence of hNav1.5 (Q14524 whole entry): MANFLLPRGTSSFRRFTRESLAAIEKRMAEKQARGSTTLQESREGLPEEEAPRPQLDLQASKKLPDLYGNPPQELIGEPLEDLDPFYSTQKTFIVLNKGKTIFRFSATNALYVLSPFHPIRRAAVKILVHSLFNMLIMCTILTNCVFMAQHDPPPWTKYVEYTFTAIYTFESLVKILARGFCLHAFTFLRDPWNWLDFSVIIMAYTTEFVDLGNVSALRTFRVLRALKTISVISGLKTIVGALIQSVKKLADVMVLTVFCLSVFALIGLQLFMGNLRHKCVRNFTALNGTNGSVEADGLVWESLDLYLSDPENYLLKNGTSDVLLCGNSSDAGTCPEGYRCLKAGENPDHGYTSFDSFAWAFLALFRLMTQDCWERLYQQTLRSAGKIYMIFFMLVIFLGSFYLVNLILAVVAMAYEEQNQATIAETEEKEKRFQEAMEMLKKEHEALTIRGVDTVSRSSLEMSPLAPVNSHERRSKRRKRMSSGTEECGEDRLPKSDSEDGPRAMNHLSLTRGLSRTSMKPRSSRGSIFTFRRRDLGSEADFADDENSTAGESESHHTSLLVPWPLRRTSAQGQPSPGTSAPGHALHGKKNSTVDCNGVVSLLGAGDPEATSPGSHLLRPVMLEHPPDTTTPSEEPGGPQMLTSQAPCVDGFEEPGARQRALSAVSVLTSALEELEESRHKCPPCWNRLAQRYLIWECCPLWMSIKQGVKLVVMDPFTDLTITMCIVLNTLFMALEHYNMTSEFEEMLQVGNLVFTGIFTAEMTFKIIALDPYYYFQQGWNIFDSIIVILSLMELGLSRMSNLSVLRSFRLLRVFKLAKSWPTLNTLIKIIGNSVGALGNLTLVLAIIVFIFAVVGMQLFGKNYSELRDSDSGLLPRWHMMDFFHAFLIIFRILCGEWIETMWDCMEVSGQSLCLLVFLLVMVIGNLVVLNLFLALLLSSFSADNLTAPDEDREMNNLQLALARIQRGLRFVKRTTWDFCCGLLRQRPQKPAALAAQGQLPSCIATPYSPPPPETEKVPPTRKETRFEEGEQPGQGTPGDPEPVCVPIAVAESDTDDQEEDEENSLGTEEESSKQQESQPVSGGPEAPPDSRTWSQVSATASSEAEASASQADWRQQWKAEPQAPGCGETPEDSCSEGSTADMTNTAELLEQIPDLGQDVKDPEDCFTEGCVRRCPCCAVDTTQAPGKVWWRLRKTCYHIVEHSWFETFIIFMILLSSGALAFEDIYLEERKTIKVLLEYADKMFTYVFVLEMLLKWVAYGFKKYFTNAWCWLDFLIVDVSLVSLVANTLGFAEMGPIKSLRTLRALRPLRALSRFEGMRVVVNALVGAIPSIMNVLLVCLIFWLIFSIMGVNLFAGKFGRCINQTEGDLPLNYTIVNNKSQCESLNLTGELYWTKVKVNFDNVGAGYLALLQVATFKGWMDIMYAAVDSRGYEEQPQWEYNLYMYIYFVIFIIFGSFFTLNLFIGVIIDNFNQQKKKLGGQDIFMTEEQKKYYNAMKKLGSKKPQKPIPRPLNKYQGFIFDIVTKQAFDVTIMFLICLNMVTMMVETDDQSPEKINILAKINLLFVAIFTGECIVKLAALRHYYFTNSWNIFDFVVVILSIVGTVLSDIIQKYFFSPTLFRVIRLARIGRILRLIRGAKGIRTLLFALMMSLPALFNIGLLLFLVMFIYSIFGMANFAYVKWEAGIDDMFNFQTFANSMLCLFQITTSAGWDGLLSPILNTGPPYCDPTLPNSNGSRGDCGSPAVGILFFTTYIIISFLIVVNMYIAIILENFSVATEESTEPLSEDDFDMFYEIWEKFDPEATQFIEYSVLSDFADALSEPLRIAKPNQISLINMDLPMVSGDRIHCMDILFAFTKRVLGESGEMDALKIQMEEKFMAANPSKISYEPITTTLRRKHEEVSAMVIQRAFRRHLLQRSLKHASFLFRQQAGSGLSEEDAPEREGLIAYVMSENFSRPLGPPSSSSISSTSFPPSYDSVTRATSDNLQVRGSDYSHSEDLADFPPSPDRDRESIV

Structure (SMILES)	IC50 [1]	IC50 [2]	IC50 [3]	Nav1.4/Nav1.7 [3]	IC50 [4]
CC[C@H](C)[C@H](NC(=O)[C@@H](NC(=O)[C@H](CCCCN)NC(=O)[C@H](CCCNC(=N)N)NC(=O)[C@@H]1CSSC[C@@H]2NC(=O)[C@H](C)NC(=O)[C@H](CCCNC(=N)N)NC(=O)[C@H](CCCCN)NC(=O)[C@H](CO)NC(=O)[C@H](CC(=O)O)NC(=O)[C@@H]3CSSC[C@H](NC(=O)[C@H](CCCNC(=N)N)NC(=O)[C@H](CC(C)C)NC(=O)CNC(=O)[C@H](CCC(=O)O)NC(=O)[C@H](CSSC[C@H](NC(=O)[C@@H](N)Cc4ccc(O)cc4)C(=O)N[C@@H](CCC(N)=O)C(=O)N[C@@H](CCCCN)C(=O)N[C@@H](Cc4c[nH]c5ccccc45)C(=O)N[C@@H](CCSC)C(=O)N[C@@H](Cc4c[nH]c5ccccc45)C(=O)N[C@@H]([C@@H](C)O)C(=O)N3)NC2=O)C(=O)N[C@@H](CCCCN)C(=O)N[C@@H](CC(C)C)C(=O)N[C@@H](CCCNC(=N)N)C(=O)N1)[C@@H](C)CC)C(N)=O [compound 106]	5 µM	> 5 µM	2.5 µM	1	4.8 µM
CC[C@H](C)[C@H](NC(=O)[C@@H](NC(=O)[C@H](CCCCN)NC(=O)[C@H](CCCNC(=N)N)NC(=O)[C@@H]1CSSC[C@@H]2NC(=O)[C@H](C)NC(=O)[C@H](CCCNC(=N)N)NC(=O)[C@H](CCCCN)NC(=O)[C@H](CO)NC(=O)[C@H](CC(=O)O)NC(=O)[C@@H]3CSSC[C@H](NC(=O)[C@H](CCCNC(=N)N)NC(=O)[C@H](CC(C)C)NC(=O)CNC(=O)[C@H](CCC(=O)O)NC(=O)[C@H](CSSC[C@H](NC(=O)[C@@H](N)Cc4ccc(O)cc4)C(=O)N[C@@H](CCC(N)=O)C(=O)N[C@@H](CCCCN)C(=O)N[C@@H](Cc4c[nH]c5ccccc45)C(=O)N[C@@H](CCSC)C(=O)N[C@@H](Cc4c[nH]c5ccccc45)C(=O)N[C@@H]([C@@H](C)O)C(=O)N3)NC2=O)C(=O)N[C@@H](CCCNC(=N)N)C(=O)N[C@@H](CC(C)C)C(=O)N[C@@H](Cc2c[nH]c3ccccc23)C(=O)N1)[C@@H](C)CC)C(N)=O [compound 104]	0.016 µM	2 µM	0.17 µM	11	0.08 µM
CC[C@H](C)[C@H](NC(=O)[C@@H](NC(=O)[C@H](CCCCN)NC(=O)[C@H](CCCNC(=N)N)NC(=O)[C@@H]1CSSC[C@@H]2NC(=O)[C@H](C)NC(=O)[C@H](CCCNC(=N)N)NC(=O)[C@H](C)NC(=O)[C@H](CO)NC(=O)[C@H](CC(=O)O)NC(=O)[C@@H]3CSSC[C@H](NC(=O)[C@H](CCCNC(=N)N)NC(=O)[C@H](CC(C)C)NC(=O)CNC(=O)[C@H](CCC(=O)O)NC(=O)[C@H](CSSC[C@H](NC(=O)[C@@H](N)Cc4ccc(O)cc4)C(=O)N[C@@H](CCC(N)=O)C(=O)N[C@@H](CCCCN)C(=O)N[C@@H](Cc4c[nH]c5ccccc45)C(=O)N[C@@H](CCSC)C(=O)N[C@@H](Cc4c[nH]c5ccccc45)C(=O)N[C@@H]([C@@H](C)O)C(=O)N3)NC2=O)C(=O)N[C@@H](CCCCN)C(=O)N[C@@H](CC(C)C)C(=O)N[C@@H](Cc2c[nH]c3ccccc23)C(=O)N1)[C@@H](C)CC)C(N)=O [compound 12]	0.022 µM	> 5 µM	0.26 µM	12	0.15 µM
CC[C@H](C)[C@H](NC(=O)[C@@H](NC(=O)[C@H](CCCCN)NC(=O)[C@H](CCCNC(=N)N)NC(=O)[C@@H]1CSSC[C@@H]2NC(=O)[C@H](CCCCN)NC(=O)[C@H](CCCNC(=N)N)NC(=O)[C@H](CCCCN)NC(=O)[C@H](CO)NC(=O)[C@H](CC(=O)O)NC(=O)[C@@H]3CSSC[C@H](NC(=O)[C@H](CCCNC(=N)N)NC(=O)[C@H](CC(C)C)NC(=O)CNC(=O)[C@H](CCC(=O)O)NC(=O)[C@H](CSSC[C@H](NC(=O)[C@@H](N)Cc4ccc(O)cc4)C(=O)N[C@@H](CCC(N)=O)C(=O)N[C@@H](CCCCN)C(=O)N[C@@H](Cc4c[nH]c5ccccc45)C(=O)N[C@@H](CCSC)C(=O)N[C@@H](Cc4c[nH]c5ccccc45)C(=O)N[C@@H]([C@@H](C)O)C(=O)N3)NC2=O)C(=O)N[C@@H](CCCCN)C(=O)N[C@@H](CC(C)C)C(=O)N[C@@H](Cc2c[nH]c3ccccc23)C(=O)N1)[C@@H](C)CC)C(N)=O [compound 80]	0.007 µM	1.5 µM	0.07 µM	10	0.03 µM

— patent publication US10344060B2 (priority 2013, dated 2019)
